Data published in patent US11596145B2, “Anti-freezing agent for protecting biological tissue during freezing treatment and preparation method therefor” (TAIPEI VETERANS GENERAL HOSPITAL, priority 2016, dated 2023).

Assays:
human cartilage tissue [1] = experiment: Protection of human cartilage tissue during liquid nitrogen freezing (HE stain, separation of cartilage from hard bone); details: applied to articular cartilage, liquid nitrogen 20 minutes, warmed to room temperature 20 minutes
Source text: Unneeded normal cartilage tissues (residual specimens) taken from the human body during surgery were divided into three groups and treated separately: control group A was not treated; for control group B, traditional commercially available anti-freezing agent was applied to articular cartilage; and for experimental group C, the anti-freezing agent of the present invention was applied to the articular cartilage. The control and experimental groups were separately placed in liquid nitrogen to freeze for 20 minutes, slowly warmed to room temperature for 20 minutes, fixed with 4% paraformaldehyde, pathologically sectioned, and then stained by hematoxylin-eosin. […] The size of separation was 2.16 mm in the control group A, 1.2 mm in the control group B, and 0.45 mm in the experimental group. It was shown that the anti-freezing agent of the present invention can protect cartilage tissue and reduce the separation of cartilage and hard bone caused by freezing.

human cartilage tissue [2] = experiment: Change of cartilage color index (luminance level of cartilage surface) after freezing; details: applied to articular cartilage; liquid nitrogen 20 minutes, warmed to room temperature 20 minutes
Source text: Unneeded normal cartilage tissues (residual specimens) taken from the human body during surgery were divided into three groups and treated separately: control group A was not treated; for control group B, traditional commercially available anti-freezing agent was applied to articular cartilage; and for experimental group C, the anti-freezing agent of the present invention was applied to the articular cartilage. The control and experimental groups were separately placed in liquid nitrogen to freeze for 20 minutes, and then slowly warmed to room temperature for 20 minutes. The color index change of the cartilage surface was observed by analyzing the decrease of luminance level of the cartilage surface.

rat knee cartilage = experiment: Protective effect on rat knee cartilage during liquid nitrogen freezing (HE stain of pathological sections); details: coated at articular cartilage; liquid nitrogen 20 minutes, warmed to room temperature 20 minutes
Method: The rat knee cartilage was taken out. The control group A was not treated, and the control group B was coated with a conventional commercially available anti-freezing agent (dimethyl sulfoxide) at the articular cartilage. The experimental groups were coated with the anti-freezing agent of the present invention at the articular cartilage, separately placed in liquid nitrogen for 20 minutes, slowly warmed to room temperature for 20 minutes, fixed with 4% paraformaldehyde, pathologically sectioned, and then stained with hematoxylin-eosin (HE stain). The pathological sections of hematoxylin-eosin stained control group (A), control group (B), and experimental group (C). are shown in FIG. 2. After freezing, in the control group A the cartilage surface became brittle and uneven (as indicated by the arrow), and the control group B was also uneven (as indicated by the arrow).

C[S+](C)[O-] [dimethyl sulfoxide]
separation at the intersection of the cartilage bottom and the hard bone after freezing (human cartilage tissue [1]; HE stain): separation (the stellate) also occurred
size of separation (human cartilage tissue [1]; untreated control 2.16 mm): 1.2 mm
decrease of luminance level of the cartilage surface after freezing (human cartilage tissue [2]): significantly decreased
cartilage surface after freezing (hematoxylin-eosin stained section) (rat knee cartilage): uneven
